From ChEMBL document CHEMBL4831492, “Design and synthesis of 2-(2-isonicotinoylhydrazineylidene)propanamides as InhA inhibitors with high antitubercular activity” (Eur J Med Chem, 2021)
In brackets after ≈: the same amount, converted by molar mass.

Experiments:
Type in all cases: functional
[1] = test system: Mycobacterium tuberculosis; experiment: Antimycobacterial activity against multi drug-resistant Mycobacterium tuberculosis 7357/1998 assessed as minimal inhibitory concentration required for complete inhibition of mycobacterial growth incubated for 21 days; conditions: 7357/1998, 504 h, time 21 day
[2] = test system: Mycobacterium tuberculosis; experiment: Antimycobacterial activity against multi drug-resistant Mycobacterium tuberculosis praha 4 assessed as minimal inhibitory concentration required for complete inhibition of mycobacterial growth incubated for 14 days; conditions: praha 4, 336 h, time 14 day
[3] = test system: Mycobacterium tuberculosis; experiment: Antimycobacterial activity against multi drug-resistant Mycobacterium tuberculosis 234/2005 assessed as minimal inhibitory concentration required for complete inhibition of mycobacterial growth incubated for 14 days; conditions: 234/2005, 336 h, time 14 day
[4] = test system: Mycobacterium tuberculosis; experiment: Antimycobacterial activity against multi drug-resistant Mycobacterium tuberculosis praha 131 assessed as minimal inhibitory concentration required for complete inhibition of mycobacterial growth incubated for 14 days; conditions: praha 131, 336 h, time 14 day
[5] = test system: Mycobacterium tuberculosis; experiment: Antimycobacterial activity against multi drug-resistant Mycobacterium tuberculosis praha 1 assessed as minimal inhibitory concentration required for complete inhibition of mycobacterial growth incubated for 21 days; conditions: praha 1, 504 h, time 21 day
[6] = test system: Mycobacterium tuberculosis; experiment: Antimycobacterial activity against multi drug-resistant Mycobacterium tuberculosis 8666/2010 assessed as minimal inhibitory concentration required for complete inhibition of mycobacterial growth incubated for 14 days; conditions: 8666/2010, 336 h, time 14 day
[7] = test system: Mycobacterium tuberculosis; experiment: Antimycobacterial activity against multi drug-resistant Mycobacterium tuberculosis 8666/2010 assessed as minimal inhibitory concentration required for complete inhibition of mycobacterial growth incubated for 21 days; conditions: 8666/2010, 504 h, time 21 day
[8] = test system: Mycobacterium tuberculosis; experiment: Antimycobacterial activity against multi drug-resistant Mycobacterium tuberculosis 234/2005 assessed as minimal inhibitory concentration required for complete inhibition of mycobacterial growth incubated for 21 days; conditions: 234/2005, 504 h, time 21 day
[9] = test system: Mycobacterium tuberculosis; experiment: Antimycobacterial activity against multi drug-resistant Mycobacterium tuberculosis 9449/2007 assessed as minimal inhibitory concentration required for complete inhibition of mycobacterial growth incubated for 21 days; conditions: 9449/2007, 504 h, time 21 day
[10] = test system: Mycobacterium tuberculosis; experiment: Antimycobacterial activity against multi drug-resistant Mycobacterium tuberculosis 7357/1998 assessed as minimal inhibitory concentration required for complete inhibition of mycobacterial growth incubated for 14 days; conditions: 7357/1998, 336 h, time 14 day
[11] = test system: Mycobacterium tuberculosis; experiment: Antimycobacterial activity against multi drug-resistant Mycobacterium tuberculosis 9449/2007 assessed as minimal inhibitory concentration required for complete inhibition of mycobacterial growth incubated for 14 days; conditions: 9449/2007, 336 h, time 14 day
[12] = test system: Mycobacterium tuberculosis; experiment: Antimycobacterial activity against multi drug-resistant Mycobacterium tuberculosis praha 1 assessed as minimal inhibitory concentration required for complete inhibition of mycobacterial growth incubated for 14 days; conditions: praha 1, 336 h, time 14 day
[13] = test system: Mycobacterium tuberculosis; experiment: Antimycobacterial activity against multi drug-resistant Mycobacterium tuberculosis praha 4 assessed as minimal inhibitory concentration required for complete inhibition of mycobacterial growth incubated for 21 days; conditions: praha 4, 504 h, time 21 day
[14] = test system: Mycobacterium tuberculosis; experiment: Antimycobacterial activity against multi drug-resistant Mycobacterium tuberculosis praha 131 assessed as minimal inhibitory concentration required for complete inhibition of mycobacterial growth incubated for 21 days; conditions: praha 131, 504 h, time 21 day
[15] = test system: Mycobacterium tuberculosis; experiment: Antimycobacterial activity against Mycobacterium tuberculosis H37Ra overexpressing KatGs-meg assessed as bacterial growth inhibition incubated for 28 days by drop dilution method; conditions: 672 h, time 28 day
[16] = test system: Mycobacterium tuberculosis; experiment: Antimycobacterial activity against Mycobacterium tuberculosis H37Ra overexpressing InhA assessed as bacterial growth inhibition incubated for 28 days by drop dilution method; conditions: 672 h, time 28 day

| Structure (SMILES) | MIC [1] [µM] | MIC [2] [µM] | MIC [3] [µM] | MIC [4] [µM] | MIC [5] [µM] | MIC [6] [µM] | MIC [7] [µM] | MIC [8] [µM] | MIC [9] [µM] | MIC [10] [µM] | MIC [11] [µM] | MIC [12] [µM] | MIC [13] [µM] | MIC [14] [µM] | MIC [15] [µM] | MIC [16] [µM] |
| --- | --- | --- | --- | --- | --- | --- | --- | --- | --- | --- | --- | --- | --- | --- | --- | --- |
| C/C(=N\NC(=O)c1ccncc1)C(=O)Nc1ccc(C(F)(F)F)cc1 | 64 (≈ 22.4 µg/mL) | 32 (≈ 11.2 µg/mL) | 32 (≈ 11.2 µg/mL) | 64 (≈ 22.4 µg/mL) | 64 (≈ 22.4 µg/mL) | 32 (≈ 11.2 µg/mL) | 32 (≈ 11.2 µg/mL) | 64 (≈ 22.4 µg/mL) | 32 (≈ 11.2 µg/mL) | 32 (≈ 11.2 µg/mL) | 32 (≈ 11.2 µg/mL) | 32 (≈ 11.2 µg/mL) | 64 (≈ 22.4 µg/mL) | 64 (≈ 22.4 µg/mL) |  |  |
| C/C(=N\NC(=O)c1ccncc1)C(=O)Nc1ccc(I)cc1 | 32 (≈ 13.1 µg/mL) | 16 (≈ 6.53 µg/mL) | 16 (≈ 6.53 µg/mL) | 8 (≈ 3.27 µg/mL) | 32 (≈ 13.1 µg/mL) | 8 (≈ 3.27 µg/mL) | 16 (≈ 6.53 µg/mL) | 16 (≈ 6.53 µg/mL) | 16 (≈ 6.53 µg/mL) | 16 (≈ 6.53 µg/mL) | 8 (≈ 3.27 µg/mL) | 16 (≈ 6.53 µg/mL) | 32 (≈ 13.1 µg/mL) | 16 (≈ 6.53 µg/mL) | 0.25 (≈ 0.102 µg/mL) | 12.5 (≈ 5.1 µg/mL) |
| C/C(=N\NC(=O)c1ccncc1)C(=O)Nc1cccc(Cl)c1 | 32 (≈ 10.1 µg/mL) | 32 (≈ 10.1 µg/mL) | 64 (≈ 20.3 µg/mL) | 32 (≈ 10.1 µg/mL) | 32 (≈ 10.1 µg/mL) | 16 (≈ 5.07 µg/mL) | 32 (≈ 10.1 µg/mL) | 64 (≈ 20.3 µg/mL) | 64 (≈ 20.3 µg/mL) | 32 (≈ 10.1 µg/mL) | 32 (≈ 10.1 µg/mL) | 32 (≈ 10.1 µg/mL) | 32 (≈ 10.1 µg/mL) | 64 (≈ 20.3 µg/mL) |  |  |
| C/C(=N\NC(=O)c1ccncc1)C(=O)Nc1ccc(Cl)c(Cl)c1 | 125 (≈ 43.9 µg/mL) | 64 (≈ 22.5 µg/mL) | 64 (≈ 22.5 µg/mL) | 32 (≈ 11.2 µg/mL) | 125 (≈ 43.9 µg/mL) | 32 (≈ 11.2 µg/mL) | 32 (≈ 11.2 µg/mL) | 125 (≈ 43.9 µg/mL) | 32 (≈ 11.2 µg/mL) | 64 (≈ 22.5 µg/mL) | 32 (≈ 11.2 µg/mL) | 64 (≈ 22.5 µg/mL) | 125 (≈ 43.9 µg/mL) | 64 (≈ 22.5 µg/mL) |  |  |
| C/C(=N\NC(=O)c1ccncc1)C(=O)Nc1ccc(OC(F)(F)F)cc1 | 64 (≈ 23.4 µg/mL) | 32 (≈ 11.7 µg/mL) | 32 (≈ 11.7 µg/mL) | 64 (≈ 23.4 µg/mL) | 64 (≈ 23.4 µg/mL) | 32 (≈ 11.7 µg/mL) | 64 (≈ 23.4 µg/mL) | 32 (≈ 11.7 µg/mL) | 64 (≈ 23.4 µg/mL) | 32 (≈ 11.7 µg/mL) | 32 (≈ 11.7 µg/mL) | 64 (≈ 23.4 µg/mL) | 64 (≈ 23.4 µg/mL) | 64 (≈ 23.4 µg/mL) | 0.15 (≈ 0.0549 µg/mL) | 6 (≈ 2.2 µg/mL) |
| C/C(=N\NC(=O)c1ccncc1)C(=O)Nc1ccc(Cl)cc1 | 32 (≈ 10.1 µg/mL) | 32 (≈ 10.1 µg/mL) | 32 (≈ 10.1 µg/mL) | 32 (≈ 10.1 µg/mL) | 32 (≈ 10.1 µg/mL) | 8 (≈ 2.53 µg/mL) | 16 (≈ 5.07 µg/mL) | 64 (≈ 20.3 µg/mL) | 64 (≈ 20.3 µg/mL) | 32 (≈ 10.1 µg/mL) | 32 (≈ 10.1 µg/mL) | 32 (≈ 10.1 µg/mL) | 32 (≈ 10.1 µg/mL) | 64 (≈ 20.3 µg/mL) |  |  |
| C/C(=N\NC(=O)c1ccncc1)C(=O)Nc1ccc(Br)cc1 | 32 (≈ 11.6 µg/mL) | 32 (≈ 11.6 µg/mL) | 32 (≈ 11.6 µg/mL) | 32 (≈ 11.6 µg/mL) | 32 (≈ 11.6 µg/mL) | 32 (≈ 11.6 µg/mL) | 32 (≈ 11.6 µg/mL) | 64 (≈ 23.1 µg/mL) | 64 (≈ 23.1 µg/mL) | 32 (≈ 11.6 µg/mL) | 32 (≈ 11.6 µg/mL) | 32 (≈ 11.6 µg/mL) | 32 (≈ 11.6 µg/mL) | 64 (≈ 23.1 µg/mL) |  |  |
| C/C(=N\NC(=O)c1ccncc1)C(=O)Nc1ccc(F)cc1 | 64 (≈ 19.2 µg/mL) | 32 (≈ 9.61 µg/mL) | 64 (≈ 19.2 µg/mL) | 64 (≈ 19.2 µg/mL) | 64 (≈ 19.2 µg/mL) | 32 (≈ 9.61 µg/mL) | 32 (≈ 9.61 µg/mL) | 125 (≈ 37.5 µg/mL) | 32 (≈ 9.61 µg/mL) | 64 (≈ 19.2 µg/mL) | 32 (≈ 9.61 µg/mL) | 64 (≈ 19.2 µg/mL) | 64 (≈ 19.2 µg/mL) | 64 (≈ 19.2 µg/mL) |  |  |
